Laboratory results reported in patent US9399904B2, “Oil recovery system and method” (SHELL OIL COMPANY, priority 2013, dated 2016).

Experiment: Dynamic viscosity of crude/dimethyl sulfide blends, closed cup rheometer
Type: physicochemical
Description: The quality of dimethyl sulfide as an oil recovery agent based on the crude oil viscosity lowering properties of dimethyl sulfide was evaluated. Three crude oils having widely disparate viscosity characteristics—an African Waxy crude, a Middle Eastern asphaltic crude, and a Canadian asphaltic crude—were blended with dimethyl sulfide.
A control sample of each crude was prepared containing no dimethyl sulfide, and samples of each crude were prepared and blended with dimethyl sulfide to prepare crude samples containing increasing concentrations of dimethyl sulfide. The samples were heated to 60° C. to dissolve any waxes therein and to permit weighing of a homogeneous liquid. The samples were weighed, allowed to cool overnight, then blended with a selected quantity of dimethyl sulfide. The samples of the crude/dimethyl sulfide blend were then heated to 60° C. and mixed to ensure homogeneous blending of the dimethyl sulfide in the samples. Absolute (dynamic) viscosity measurements of each of the samples were taken using a closed cup rheometer using a PZ39 rotor sensor assembly in the rheometer. Viscosity measurements of each of the samples of the West African waxy crude and the Middle Eastern asphaltic crude were taken at 20° C., 40° C., 60° C., 80° C., and then again at 20° C. after cooling from 80° C., where the second measurement at 20° C. is taken to measure the viscosity without the presence of waxes since wax formation occurs slowly enough to permit viscosity measurement at 20° C. without the presence of wax. Viscosity measurements of each of the samples of the Canadian asphaltic crude were taken at 5° C., 10° C., 20° C., 40° C., 60° C., 80° C., The measured viscosities for each of the crudes are shown in Tables 4, 5, and 6 below.

Viscosity of West African Waxy Crude (1.21 wt. % DMS, 20° C.): 125.8 mPa s | Viscosity of West African Waxy Crude (1.21 wt. % DMS, 20° C. after cooling from 80° C.): 100.1 mPa s | Viscosity of West African Waxy Crude (1.21 wt. % DMS, 40° C.): 30.94 mPa s | Viscosity of West African Waxy Crude (1.21 wt. % DMS, 60° C.): 14.66 mPa s | Viscosity of West African Waxy Crude (1.21 wt. % DMS, 80° C.): 8.92 mPa s | Viscosity of Middle Eastern Asphaltic Crude (1.3 wt. % DMS, 20° C.): 1733.8 mPa s | Viscosity of Middle Eastern Asphaltic Crude (1.3 wt. % DMS, 20° C. after cooling from 80° C.): 1624.8 mPa s | Viscosity of Middle Eastern Asphaltic Crude (1.3 wt. % DMS, 40° C.): 334.5 mPa s | Viscosity of Middle Eastern Asphaltic Crude (1.3 wt. % DMS, 60° C.): 106.7 mPa s | Viscosity of Middle Eastern Asphaltic Crude (1.3 wt. % DMS, 80° C.): 44.6 mPa s | Viscosity of Topped Canadian Asphaltic Crude (1.43 wt. % DMS, 20° C.): 212525 mPa s | Viscosity of Topped Canadian Asphaltic Crude (1.43 wt. % DMS, 40° C.): 14721 mPa s | Viscosity of Topped Canadian Asphaltic Crude (1.43 wt. % DMS, 60° C.): 2209 mPa s | Viscosity of Topped Canadian Asphaltic Crude (1.43 wt. % DMS, 80° C.): 538 mPa s | Viscosity of Topped Canadian Asphaltic Crude (2.07 wt. % DMS, 20° C.): 134880 mPa s | Viscosity of Topped Canadian Asphaltic Crude (2.07 wt. % DMS, 40° C.): 10523 mPa s | Viscosity of Topped Canadian Asphaltic Crude (2.07 wt. % DMS, 60° C.): 1747 mPa s | Viscosity of Topped Canadian Asphaltic Crude (2.07 wt. % DMS, 80° C.): 427 mPa s | Viscosity of West African Waxy Crude (2.48 wt. % DMS, 20° C.): 122.3 mPa s | Viscosity of West African Waxy Crude (2.48 wt. % DMS, 20° C. after cooling from 80° C.): 89.23 mPa s | Viscosity of West African Waxy Crude (2.48 wt. % DMS, 40° C.): 30.53 mPa s | Viscosity of West African Waxy Crude (2.48 wt. % DMS, 60° C.): 13.66 mPa s | Viscosity of West African Waxy Crude (2.48 wt. % DMS, 80° C.): 8.44 mPa s | Viscosity of Middle Eastern Asphaltic Crude (2.6 wt. % DMS, 20° C.): 1026.6 mPa s | Viscosity of Middle Eastern Asphaltic Crude (2.6 wt. % DMS, 20° C. after cooling from 80° C.): 881.1 mPa s | Viscosity of Middle Eastern Asphaltic Crude (2.6 wt. % DMS, 40° C.): 219.9 mPa s | Viscosity of Middle Eastern Asphaltic Crude (2.6 wt. % DMS, 60° C.): 76.5 mPa s | Viscosity of Middle Eastern Asphaltic Crude (2.6 wt. % DMS, 80° C.): 34.3 mPa s | Viscosity of Topped Canadian Asphaltic Crude (4.87 wt. % DMS, 20° C.): 28720 mPa s | Viscosity of Topped Canadian Asphaltic Crude (4.87 wt. % DMS, 40° C.): 3235 mPa s | Viscosity of Topped Canadian Asphaltic Crude (4.87 wt. % DMS, 60° C.): 985 mPa s | Viscosity of Topped Canadian Asphaltic Crude (4.87 wt. % DMS, 80° C.): 328 mPa s | Viscosity of West African Waxy Crude (5.03 wt. % DMS, 20° C.): 78.37 mPa s | Viscosity of West African Waxy Crude (5.03 wt. % DMS, 20° C. after cooling from 80° C.): 55.21 mPa s | Viscosity of West African Waxy Crude (5.03 wt. % DMS, 40° C.): 20.24 mPa s | Viscosity of West African Waxy Crude (5.03 wt. % DMS, 60° C.): 10.45 mPa s | Viscosity of West African Waxy Crude (5.03 wt. % DMS, 80° C.): 6.55 mPa s | Viscosity of Middle Eastern Asphaltic Crude (5.3 wt. % DMS, 20° C.): 496.5 mPa s | Viscosity of Middle Eastern Asphaltic Crude (5.3 wt. % DMS, 20° C. after cooling from 80° C.): 503.5 mPa s | Viscosity of Middle Eastern Asphaltic Crude (5.3 wt. % DMS, 40° C.): 134.2 mPa s | Viscosity of Middle Eastern Asphaltic Crude (5.3 wt. % DMS, 60° C.): 52.2 mPa s | Viscosity of Middle Eastern Asphaltic Crude (5.3 wt. % DMS, 80° C.): 25.5 mPa s | Viscosity of Middle Eastern Asphaltic Crude (7.6 wt. % DMS, 20° C.): 288.0 mPa s | Viscosity of West African Waxy Crude (7.60 wt. % DMS, 20° C.): 60.92 mPa s | Viscosity of Middle Eastern Asphaltic Crude (7.6 wt. % DMS, 20° C. after cooling from 80° C.): 290.0 mPa s | Viscosity of West African Waxy Crude (7.60 wt. % DMS, 20° C. after cooling from 80° C.): 40.89 mPa s | Viscosity of Middle Eastern Asphaltic Crude (7.6 wt. % DMS, 40° C.): 89.4 mPa s | Viscosity of West African Waxy Crude (7.60 wt. % DMS, 40° C.): 17.08 mPa s | Viscosity of Middle Eastern Asphaltic Crude (7.6 wt. % DMS, 60° C.): 37.4 mPa s | Viscosity of West African Waxy Crude (7.60 wt. % DMS, 60° C.): 9.29 mPa s | Viscosity of Middle Eastern Asphaltic Crude (7.6 wt. % DMS, 80° C.): 19.3 mPa s | Viscosity of West African Waxy Crude (7.60 wt. % DMS, 80° C.): 6.09 mPa s | Viscosity of Topped Canadian Asphaltic Crude (8.01 wt. % DMS, 20° C.): 5799 mPa s | Viscosity of Topped Canadian Asphaltic Crude (8.01 wt. % DMS, 40° C.): 982 mPa s | Viscosity of Topped Canadian Asphaltic Crude (8.01 wt. % DMS, 60° C.): 275 mPa s | Viscosity of Topped Canadian Asphaltic Crude (8.01 wt. % DMS, 80° C.): 106 mPa s | Viscosity of Topped Canadian Asphaltic Crude (9.80 wt. % DMS, 20° C.): 2760 mPa s | Viscosity of Topped Canadian Asphaltic Crude (9.80 wt. % DMS, 40° C.): 571 mPa s | Viscosity of Topped Canadian Asphaltic Crude (9.80 wt. % DMS, 60° C.): 173 mPa s | Viscosity of Topped Canadian Asphaltic Crude (9.80 wt. % DMS, 80° C.): 73 mPa s | Viscosity of West African Waxy Crude (9.95 wt. % DMS, 20° C.): 44.70 mPa s | Viscosity of West African Waxy Crude (9.95 wt. % DMS, 20° C. after cooling from 80° C.): 30.61 mPa s | Viscosity of West African Waxy Crude (9.95 wt. % DMS, 40° C.): 13.03 mPa s | Viscosity of West African Waxy Crude (9.95 wt. % DMS, 60° C.): 7.58 mPa s | Viscosity of West African Waxy Crude (9.95 wt. % DMS, 80° C.): 5.04 mPa s | Viscosity of Middle Eastern Asphaltic Crude (10.1 wt. % DMS, 20° C.): 150.0 mPa s | Viscosity of Middle Eastern Asphaltic Crude (10.1 wt. % DMS, 20° C. after cooling from 80° C.): 150.5 mPa s | Viscosity of Middle Eastern Asphaltic Crude (10.1 wt. % DMS, 40° C.): 52.4 mPa s | Viscosity of Middle Eastern Asphaltic Crude (10.1 wt. % DMS, 60° C.): 24.5 mPa s | Viscosity of Middle Eastern Asphaltic Crude (10.1 wt. % DMS, 80° C.): 13.5 mPa s | Viscosity of Topped Canadian Asphaltic Crude (14.81 wt. % DMS, 5° C.): 1794 mPa s | Viscosity of Topped Canadian Asphaltic Crude (14.81 wt. % DMS, 10° C.): 1155 mPa s | Viscosity of Topped Canadian Asphaltic Crude (14.81 wt. % DMS, 20° C.): 548 mPa s | Viscosity of Topped Canadian Asphaltic Crude (14.81 wt. % DMS, 40° C.): 159 mPa s | Viscosity of Topped Canadian Asphaltic Crude (14.81 wt. % DMS, 60° C.): 64 mPa s | Viscosity of Topped Canadian Asphaltic Crude (14.81 wt. % DMS, 80° C.): 32 mPa s | Viscosity of West African Waxy Crude (15.13 wt. % DMS, 20° C.): 23.96 mPa s | Viscosity of West African Waxy Crude (15.13 wt. % DMS, 20° C. after cooling from 80° C.): 17.64 mPa s | Viscosity of West African Waxy Crude (15.13 wt. % DMS, 40° C.): 8.32 mPa s | Viscosity of West African Waxy Crude (15.13 wt. % DMS, 60° C.): 4.97 mPa s | Viscosity of West African Waxy Crude (15.13 wt. % DMS, 80° C.): 3.38 mPa s | Viscosity of Middle Eastern Asphaltic Crude (15.2 wt. % DMS, 20° C.): 59.4 mPa s | Viscosity of Middle Eastern Asphaltic Crude (15.2 wt. % DMS, 20° C. after cooling from 80° C.): 60.7 mPa s | Viscosity of Middle Eastern Asphaltic Crude (15.2 wt. % DMS, 40° C.): 25.2 mPa s | Viscosity of Middle Eastern Asphaltic Crude (15.2 wt. % DMS, 60° C.): 13.6 mPa s | Viscosity of Middle Eastern Asphaltic Crude (15.2 wt. % DMS, 80° C.): 8.2 mPa s | Viscosity of West African Waxy Crude (19.30 wt. % DMS, 20° C.): 15.26 mPa s | Viscosity of West African Waxy Crude (19.30 wt. % DMS, 20° C. after cooling from 80° C.): 12.06 mPa s | Viscosity of West African Waxy Crude (19.30 wt. % DMS, 40° C.): 6.25 mPa s | Viscosity of West African Waxy Crude (19.30 wt. % DMS, 60° C.): 4.05 mPa s | Viscosity of West African Waxy Crude (19.30 wt. % DMS, 80° C.): 2.92 mPa s | Viscosity of Topped Canadian Asphaltic Crude (19.78 wt. % DMS, 20° C.): 188 mPa s | Viscosity of Topped Canadian Asphaltic Crude (19.78 wt. % DMS, 40° C.): 69 mPa s | Viscosity of Topped Canadian Asphaltic Crude (19.78 wt. % DMS, 60° C.): 33 mPa s | Viscosity of Topped Canadian Asphaltic Crude (19.78 wt. % DMS, 80° C.): 19 mPa s | Viscosity of Middle Eastern Asphaltic Crude (20.1 wt. % DMS, 20° C.): 29.9 mPa s | Viscosity of Middle Eastern Asphaltic Crude (20.1 wt. % DMS, 20° C. after cooling from 80° C.): 31.0 mPa s | Viscosity of Middle Eastern Asphaltic Crude (20.1 wt. % DMS, 40° C.): 14.8 mPa s | Viscosity of Middle Eastern Asphaltic Crude (20.1 wt. % DMS, 60° C.): 8.7 mPa s | Viscosity of Middle Eastern Asphaltic Crude (20.1 wt. % DMS, 80° C.): 5.7 mPa s | Viscosity of Topped Canadian Asphaltic Crude (29.88 wt. % DMS, 5° C.): 113 mPa s | Viscosity of Topped Canadian Asphaltic Crude (29.88 wt. % DMS, 10° C.): 81 mPa s | Viscosity of Topped Canadian Asphaltic Crude (29.88 wt. % DMS, 20° C.): 51 mPa s | Viscosity of Topped Canadian Asphaltic Crude (29.88 wt. % DMS, 40° C.): 22 mPa s | Viscosity of Topped Canadian Asphaltic Crude (29.88 wt. % DMS, 60° C.): 13 mPa s | Viscosity of Topped Canadian Asphaltic Crude (29.88 wt. % DMS, 80° C.): 8 mPa s | Viscosity of Topped Canadian Asphaltic Crude (39.61 wt. % DMS, 5° C.): 23 mPa s | Viscosity of Topped Canadian Asphaltic Crude (39.61 wt. % DMS, 10° C.): 20 mPa s | Viscosity of Topped Canadian Asphaltic Crude (39.61 wt. % DMS, 20° C.): 14 mPa s | Viscosity of Topped Canadian Asphaltic Crude (39.61 wt. % DMS, 40° C.): 8 mPa s | Viscosity of Topped Canadian Asphaltic Crude (39.61 wt. % DMS, 60° C.): 6 mPa s | Viscosity of Topped Canadian Asphaltic Crude (39.61 wt. % DMS, 80° C.): 4 mPa s
Compound: CSC [Dimethyl Sulfide, dimethyl sulfide]
lowering the viscosity of a crude oil, in words (all three crudes, particularly Canadian asphaltenic crude oil): effective for significantly lowering the viscosity of a crude oil
